From patent US11976083B2, “Inhibitors of peptidylarginine deiminases” (Gilead Sciences, Inc., priority 2020, dated 2024)

target: T1, human PAD4 (Homo sapiens, UniProt Q9UM07); experiment: In vitro PAD4 BAEE biochemical assay; settings: BAEE substrate 3 mM, 5 nM PAD4, 2 mM calcium chloride; geometric mean of multiple experiments
T1 construct: human PAD4 (NM_012387), A2-P663, was PCR amplified; His-SUMO (N, cleaved yes); made in house; host or cells: E. coli BL21(DE3)
Method in brief: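 Assay was run at 25 °C using 3 mM BAEE and 5 nM human PAD4 after a 30 min compound preincubation; ammonia produced over 2 h was quantified by OPA-derived fluorescence. Full inhibition was defined by 50 µM BB-Cl-Amidine, and IC50 came from variable-slope nonlinear regression.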

T1 sequence (Q9UM07 2-663): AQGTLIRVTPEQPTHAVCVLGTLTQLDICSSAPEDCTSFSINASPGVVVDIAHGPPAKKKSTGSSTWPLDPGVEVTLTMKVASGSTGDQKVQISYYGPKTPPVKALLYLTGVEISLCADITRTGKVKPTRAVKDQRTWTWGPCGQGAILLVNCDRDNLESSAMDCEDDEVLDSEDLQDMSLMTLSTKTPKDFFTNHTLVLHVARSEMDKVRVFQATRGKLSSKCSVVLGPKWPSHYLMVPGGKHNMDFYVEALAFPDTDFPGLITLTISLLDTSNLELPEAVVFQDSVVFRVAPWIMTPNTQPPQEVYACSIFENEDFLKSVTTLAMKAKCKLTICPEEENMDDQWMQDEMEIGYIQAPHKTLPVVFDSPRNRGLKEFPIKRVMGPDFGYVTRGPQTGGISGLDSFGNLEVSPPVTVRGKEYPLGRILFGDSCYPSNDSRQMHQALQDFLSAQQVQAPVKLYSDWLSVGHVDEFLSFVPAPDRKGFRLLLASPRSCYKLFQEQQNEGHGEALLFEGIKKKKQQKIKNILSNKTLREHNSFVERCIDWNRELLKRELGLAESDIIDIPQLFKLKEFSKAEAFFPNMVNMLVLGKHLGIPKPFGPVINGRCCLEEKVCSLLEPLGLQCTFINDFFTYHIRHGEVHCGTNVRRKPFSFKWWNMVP

Structure (SMILES)	IC50 [µM]
COc1cc(C(=O)N2[C@H]3CC[C@@H]2[C@H](N)C3)cc2nc(-c3cc4ccc5cc4n3CCCCCC[C@](C)(OC)C(=O)N[C@@H]5C)n(C)c12 [Example 339, (8~{S),11~{R})-17-[5-[(1~{R},2~{R},4~{S})-2-amino-7-azabicyclo[2.2.1]heptane-7-carbonyl]-7-methoxy-1-methyl-benzimidazol-2-yl]-8-methoxy-8,11-dimethyl-1,10-diazatricyclo[10.5.2.0^{15,18}]nonadeca-12(19),13,15(18),16-tetraen-9-one]	0.039
COc1cc(C(=O)N2[C@H]3CC[C@@H]2[C@H](N)C3)cc2nc(-c3cc4ccc5cc4n3CCCCCC[C@@](C)(OC)C(=O)N[C@@H]5C)n(C)c12 [Example 340, (8~{R},11~{R})-17-[5-[(1~{R},2~{R},4~{S})-2-amino-7-azabicyclo[2.2.1]heptane-7-carbonyl]-7-methoxy-1-methyl-benzimidazol-2-yl]-8-methoxy-8,11-dimethyl-1,10-diazatricyclo[10.5.2.0^{15,18}]nonadeca-12(19),13,15(18),16-tetraen-9-one]	0.061
COCC1(C)CCCCCCn2c(-c3nc4cc(C(=O)N5[C@H]6CC[C@@H]5[C@H](N)C6)cc(OC)c4n3C)cc3ccc(cc32)[C@@H](C)NC1=O (stereo partly drawn) [Example 341, (11~{R})-17-[5-[(1~{R},2~{R},4~{S})-2-amino-7-azabicyclo[2.2.1]heptane-7-carbonyl]-7-methoxy-1-methyl-benzimidazol-2-yl]-8-(methoxymethyl)-8,11-dimethyl-1,10-diazatricyclo[10.5.2.0^{15,18}]nonadeca-12(19),13,15(18),16-tetraen-9-one]	0.059
COc1cc(C(=O)N2[C@H]3CC[C@@H]2[C@H](N)C3)cc2nc(-c3cc4ccc5cc4n3CCCOC[C@H]3C[C@H]3C(=O)N[C@@H]5C)n(C)c12 [Example 342, (2~{R},5~{R},7~{S})-14-[5-[(1~{R},2~{R},4~{S})-2-amino-7-azabicyclo[2.2.1]heptane-7-carbonyl]-7-methoxy-1-methyl-benzimidazol-2-yl]-2-methyl-9-oxa-3,13-diazatetracyclo[11.5.2.0^{5,7}.0^{16,20}] icosa-1(19),14,16(20),17-tetraen-4-one]	0.043
COc1cc(C(=O)N2CC[C@H]3OCCN[C@H]3C2)cc2nc(-c3cc4ccc5nc4n3CCCCCCC3(CC3)C(=O)N[C@@H]5C)n(C)c12 [Example 343, (11~{R})-17-[5-[(4~{a}~{S),8~{a}~{R})-2,3,4,4~{a},5,7,8,8~{a}-octahydropyrido[4,3-b][1,4]oxazine-6-carbonyl]-7-methoxy-1-methyl-benzimidazol-2-yl]-11-methyl-spiro[1,10,19-triazatricyclo[10.5.2.0^{15,18}]nonadeca-12(19),13,15(18),16-tetraene-8,1′-cyclopropane]-9-one]	0.371
COc1cc(C(=O)N[C@H]2CNCC[C@@H]2F)cc2nc(-c3cc4ccc5nc4n3CCCCCc3cnccc3C(=O)N[C@@H]5C)n(C)c12 [Example 344, ~{N}-[(3~{S},4~{S})-4-fluoro-3-piperidyl]-7-methoxy-1-methyl-2-[(2~{R})-2-methyl-4-oxo-3,8,16,22-tetrazatetracyclo[14.5.2.0^{5,10}.0^{19,23}]tricosa-1(22),5,7,9,17,19(23),20-heptaen-17-yl]benzimidazole-5-carboxamide]	0.051
COc1cc(C(=O)N[C@H]2CNCC[C@@H]2F)cc2nc(-c3cc4ccc5nc4n3CCCCCc3cccc(F)c3C(=O)N[C@@H]5C)n(C)c12 [Example 345, 2-[(2~{R})-6-fluoro-2-methyl-4-oxo-3,16,22-triazatetracyclo[14.5.2.0^{5,10}.0^{19,23)]tricosa-1(22),5,7,9,17,19(23),20-heptaen-17-yl]-~{N}-[(3~{S},4~{S})-4-fluoro-3-piperidyl]-7-methoxy-1-methyl-benzimidazole-5-carboxamide]	0.06
COc1cc(C(=O)N[C@H]2CNCC[C@@H]2F)cc2nc(-c3cc4ccc5nc4n3C[C@@H]3C[C@H]3CCc3ccccc3C(=O)N[C@@H]5C)n(C)c12 [Example 346, ~{N}-[(3~{S),4~{S})-4-fluoro-3-piperidyl]-7-methoxy-1-methyl-2-[(3~{R},5~{R},16~{R})-16-methyl-14-oxo-1,15,24-triazapentacyclo[15.5.2.0^{3,5}.0^{8,13}.0^ {20,23}]tetracosa-8,10,12,17(24),18,20(23),21-heptaen-22-yl]benzimidazole-5-carboxamide]	0.097
C[C@H]1NC(=O)c2ccccc2CCCCCn2c(-c3nc4cc(C(=O)N[C@H]5CNCC[C@@H]5F)c(F)cc4n3C3CC3)cc3ccc1nc32 [Example 347, 1-cyclopropyl-6-fluoro-~{N}-[(3~{S},4~{S})-4-fluoro-3-piperidyl]-2-[(2~{R})-2-methyl-4-oxo-3,16,22-triazatetracyclo[14.5.2.0^{5,10}.0^{19,23}]tricosa-1(22),5,7,9,17,19(23),20-heptaen-17-yl]benzimidazole-5-carboxamide]	0.051
C[C@H]1NC(=O)c2ccccc2CC[C@@H]2C[C@H]2Cn2c(-c3nc4cc(C(=O)N[C@H]5CNCC[C@@H]5F)c(F)cc4n3C3CC3)cc3ccc1nc32 [Example 348, 1-cyclopropyl-6-fluoro-~{N}-[(3~{S},4~{S})-4-fluoro-3-piperidyl]-2-[(3~{R},5~{R},16~{R})-16-methyl-14-oxo-1,15,24-triazapentacyclo[15.5.2.0^{3,5}.0^{8,13}.0^ {20,23}]tetracosa-8,10,12,17(24),18,20(23),21-heptaen-22-yl]benzimidazole-5-carboxamide]	0.066
C[C@H]1NC(=O)c2cnccc2CCCCCn2c(-c3nc4cc(C(=O)N[C@H]5CNCC[C@@H]5F)c(F)cc4n3C)cc3ccc1nc32 [Example 349, 6-fluoro-~{N}-[(3~{S},4~{S})-4-fluoro-3-piperidyl]-1-methyl-2-[(2~{R})-2-methyl-4-oxo-3,7,16,22-tetrazatetracyclo[14.5.2.0^{5,10}.0^{19,23}]tricosa-1(22),5,7,9,17,19(23),20-heptaen-17-yl]benzimidazole-5-carboxamide]	0.034
C[C@H]1NC(=O)c2ccncc2CCCCCn2c(-c3nc4cc(C(=O)N[C@H]5CNCC[C@@H]5F)c(F)cc4n3C)cc3ccc1nc32 [Example 350, 6-fluoro-~{N}-[(3~{S},4~{S})-4-fluoro-3-piperidyl]-1-methyl-2-[(2~{R})-2-methyl-4-oxo-3,8,16,22-tetrazatetracyclo[14.5.2.0^{5,10}.0^{19,23}]tricosa-1(22),5,7,9,17,19(23),20-heptaen-17-yl]benzimidazole-5-carboxamide]	0.038
C[C@H]1NC(=O)c2ccccc2CC[C@H]2C[C@@H]2Cn2c(-c3nc4cc(C(=O)N[C@H]5CNCC[C@@H]5F)c(F)cc4n3C)cc3ccc1nc32 [Example 351, 6-fluoro-~{N}-[(3~{S},4~{S})-4-fluoro-3-piperidyl]-1-methyl-2-[(3~{S},5~{S),16~{R})-16-methyl-14-oxo-1,15,24-triazapentacyclo[15.5.2.0^{3,5}.0^{8,13}.0^ {20,23}]tetracosa-8,10,12,17(24),18,20(23),21-heptaen-22-yl]benzimidazole-5-carboxamide]	0.097
C[C@H]1NC(=O)c2cccc(F)c2CCCCCn2c(-c3nc4cc(C(=O)N[C@H]5CNCC[C@@H]5F)c(F)cc4n3C)cc3ccc1nc32 [Example 352, 6-fluoro-2-[(2~{R})-9-fluoro-2-methyl-4-oxo-3,16,22-triazatetracyclo[14.5.2.0^{5,10).0^{19,23}]tricosa-1(22),5,7,9,17,19(23),20-heptaen-17-yl]-~{N}-[(3~{S),4~{S})-4-fluoro-3-piperidyl]-1-methyl-benzimidazole-5-carboxamide]	0.053
C[C@H]1NC(=O)c2ccncc2CCCCCn2c(-c3nc4cc(C(=O)N[C@H]5CNCC[C@@H]5F)c(F)cc4n3C3CC3)cc3ccc1nc32 [Example 353, 1-cyclopropyl-6-fluoro-~{N}-[(3~{S},4~{S})-4-fluoro-3-piperidyl]-2-[(2~{R})-2-methyl-4-oxo-3,8,16,22-tetrazatetracyclo[14.5.2.0^{5,10}.0^{19,23}]tricosa-1(22),5,7,9,17,19(23),20-heptaen-17-yl]benzimidazole-5-carboxamide]	0.029
C[C@H]1NC(=O)c2c(Cl)cncc2CCCCCn2c(-c3nc4cc(C(=O)N[C@H]5CNCC[C@@H]5F)c(F)cc4n3C3CC3)cc3ccc1nc32 [Example 354, 2-[(2~{R})-6-chloro-2-methyl-4-oxo-3,8,16,22-tetrazatetracyclo[14.5.2.0^{5,10}.0^{19,23}]tricosa-1(22),5,7,9,17,19(23),20-heptaen-17-yl]-1-cyclopropyl-6-fluoro- ~{N}-[(3~{S},4~{S})-4-fluoro-3-piperidyl]benzimidazole-5-carboxamide]	0.026
C[C@H]1NC(=O)c2c(F)cncc2CCCCCn2c(-c3nc4cc(C(=O)N[C@H]5CNCC[C@@H]5F)c(F)cc4n3C3CC3)cc3ccc1nc32 [Example 355, 1-cyclopropyl-6-fluoro-2-[(2~{R})-6-fluoro-2-methyl-4-oxo-3,8,16,22-tetrazatetracyclo[14.5.2.0^{5,10}.0^{19,23}]tricosa-1(22),5,7,9,17,19(23),20-heptaen-17-yl]~{N}-[(3~{S},4~{S})-4-fluoro-3-piperidyl]benzimidazole-5-carboxamide]	0.018
C[C@H]1NC(=O)c2cc(Cl)ncc2CCCCCn2c(-c3nc4cc(C(=O)N[C@H]5CNCC[C@@H]5F)c(F)cc4n3C3CC3)cc3ccc1nc32 [Example 356, 2-[(2~{R})-7-chloro-2-methyl-4-oxo-3,8,16,22-tetrazatetracyclo[14.5.2.0^{5,10).0^{19,23}]tricosa-1(22),5,7,9,17,19(23),20-heptaen-17-yl]-1-cyclopropyl-6-fluoro-~ {N}-[(3~{S},4~{S})-4-fluoro-3-piperidyl]benzimidazole-5-carboxamide]	0.037
